Source: US20240327334A1, “Covalent Inhibitors As Antiviral Agents” (Enanta Pharmaceuticals, Inc., priority 2022, published 2024)

Key:
[1] = molecular target: SARS-CoV-2 Papain-like (PLpro) protease (Severe acute respiratory syndrome coronavirus 2, UniProt P0DTD1); assay: SARS-CoV-2 Papain-like (PLpro) protease biochemical enzyme inhibition assay (ubiquitin-fluorophore substrate, Ub-R110); details: Ub-R110 substrate; run in duplicate; read-out: PLpro IC50
[2] = tested on: SARS-CoV-2 replicon; assay: microbe, parasite or virus in culture; assay type: cell-based; details: Severe acute respiratory syndrome coronavirus 2, Huh-7

C[C@@H](C#Cc1nccs1)NC(=O)C(=O)NCc1ccccc1C(=O)NC1(c2ccc3nn(CC(F)(F)F)cc3c2)CC1 [Example 323]
IC50 [1]: < 100 nM
EC50 [2]: < 1000 nM

C#CCNC(=O)C(=O)NCc1ccccc1C(=O)NC1(c2cccc3nc(Cl)ccc23)CC1 [Example 387]
IC50 [1]: < 100 nM
EC50 [2]: < 1000 nM

C[C@@H](NC(=O)c1ccccc1CNC(=O)C(=O)NCC#N)c1cc(-c2cnn(C(F)F)c2)cc(C(F)(F)F)c1 [Example 463]
IC50 [1]: 100 to 1000 nM
EC50 [2]: 1000 to 10000 nM

CN1CCC(n2cc(-c3cc(F)cc(C4(NC(=O)c5ccccc5CNC(=O)C(=O)NCC#Cc5ncco5)CC4)c3)cn2)CC1 [Example 257]
IC50 [1]: < 100 nM
EC50 [2]: < 1000 nM

COCC1CCCN1c1cc(C2(NC(=O)c3ccccc3CNC(=O)C(=O)NCC#N)CC2)c2ccccc2c1 (stereo not shown) [Example 324]
IC50 [1]: < 100 nM
EC50 [2]: 1000 to 10000 nM

O=C(NCC#Cc1nccs1)C(=O)NCc1ccccc1C(=O)NC1(c2cc(Cl)cc(-c3ncco3)c2)CC1 [Example 487]
IC50 [1]: < 100 nM
EC50 [2]: < 1000 nM

Cn1cc2cc(C3(NC(=O)c4ccccc4CNC(=O)C(=O)NCC4CN(C#N)C4)CC3)ccc2n1 [Example 432]
IC50 [1]: 100 to 1000 nM
EC50 [2]: 1000 to 10000 nM

N#CCNC(=O)C(=O)NCc1ccccc1C(=O)NC1(c2ccc(F)c3ccccc23)CC1 [Example 121]
IC50 [1]: < 100 nM
EC50 [2]: < 1000 nM

N#Cc1ccccc1C#CCNC(=O)C(=O)NCc1ccccc1C(=O)NC1(c2ccc3ccccc3c2)CC1 [Example 94]
IC50 [1]: < 100 nM
EC50 [2]: < 1000 nM

O=C(NCC#Cc1nccs1)C(=O)NCc1ccccc1C(=O)NC1(c2cc(Cl)cc(-c3cnc(C4CC4)nc3)c2)CC1 [Example 83]
IC50 [1]: < 100 nM
EC50 [2]: < 1000 nM

Cc1cc(C#N)ccc1C#CCNC(=O)C(=O)NCc1ccccc1C(=O)NC1(c2ccc3ccccc3c2)CC1 [Example 85]
IC50 [1]: < 100 nM
EC50 [2]: < 1000 nM

CC[C@@H](C#Cc1nccs1)NC(=O)C(=O)NCc1ccccc1C(=O)NC1(c2ccc3nn(C)cc3c2)CC1 [Example 146]
IC50 [1]: < 100 nM
EC50 [2]: < 1000 nM

N#CCNC(=O)C(=O)NCc1ccccc1C(=O)NC1(c2cc(Cl)cc(-c3cnc(C4CC4)nc3)c2)CC1 [Example 74]
IC50 [1]: < 100 nM
EC50 [2]: 1000 to 10000 nM

C[C@@H](C#Cc1nccs1)NC(=O)C(=O)NCc1ccccc1C(=O)NC1(c2ccc3c(cnn3C)c2)CC1 [Example 346]
IC50 [1]: < 100 nM
EC50 [2]: < 1000 nM

C[C@@H](C#Cc1ccc(C#N)cc1Cl)NC(=O)C(=O)NCc1ccccc1C(=O)NC1(c2ccc3nn(C)cc3c2)CC1 [Example 107]
IC50 [1]: < 100 nM
EC50 [2]: < 1000 nM

O=C(NCC#Cc1ncco1)C(=O)NCc1ccccc1C(=O)NC1(c2ccc3ccccc3c2)CC1 [Example 137]
IC50 [1]: < 100 nM
EC50 [2]: < 1000 nM

O=C(NCC#Cc1nccs1)C(=O)NCc1ccccc1C(=O)NC1(c2cc(F)cc(-c3cnn(C(F)F)c3)c2)CC1 [Example 81]
IC50 [1]: < 100 nM
EC50 [2]: < 1000 nM

Cc1nn(C(F)F)c(C)c1-c1cc(F)cc(C2(NC(=O)c3ccccc3CNC(=O)C(=O)NCC#Cc3nccs3)CC2)c1 [Example 140]
IC50 [1]: < 100 nM
EC50 [2]: < 1000 nM

Cc1nn(C)cc1-c1cc(F)cc(C2(NC(=O)c3ccccc3CNC(=O)C(=O)NCC#Cc3ncccc3Cl)CC2)c1 [Example 259]
IC50 [1]: < 100 nM
EC50 [2]: < 1000 nM

COc1cc(C#N)ccc1C#CCNC(=O)C(=O)NCc1ccccc1C(=O)NC1(c2ccc3ccccc3c2)CC1 [Example 88]
IC50 [1]: < 100 nM
EC50 [2]: < 1000 nM

N#CCNC(=O)C(=O)NCc1ccccc1C(=O)NC1(c2cc(F)cc(-c3cnn(C4CC4)c3)c2F)CC1 [Example 312]
IC50 [1]: < 100 nM
EC50 [2]: 1000 to 10000 nM

N#CCNC(=O)C(=O)NCc1ccccc1C(=O)NC1(c2ccc3sc4ccccc4c3c2)CC1 [Example 369]
IC50 [1]: < 100 nM
EC50 [2]: 1000 to 10000 nM

O=C(NCC#Cc1ncc(F)cn1)C(=O)NCc1ccccc1C(=O)NC1(c2cc(F)cc(-c3cnn(C4CC4)c3)c2)CC1 [Example 248]
IC50 [1]: < 100 nM
EC50 [2]: < 1000 nM

Cc1cc(C)nc(C#CCNC(=O)C(=O)NCc2ccccc2C(=O)NC2(c3ccc4ccccc4c3)CC2)n1 [Example 178]
IC50 [1]: < 100 nM
EC50 [2]: < 1000 nM

N#Cc1cccc(C#CCNC(=O)C(=O)NCc2ccccc2C(=O)NC2(c3ccc4ccccc4c3)CC2)n1 [Example 193]
IC50 [1]: < 100 nM
EC50 [2]: < 1000 nM

O=C(NC/C=C/C(=O)N1CC(F)(F)C1)C(=O)NCc1ccccc1C(=O)NC1(c2cccc3ccccc23)CC1 [Example 554]
IC50 [1]: 100 to 1000 nM
EC50 [2]: 1000 to 10000 nM

Cc1nn(C2CC2)c(C)c1-c1cc(Cl)cc(C2(NC(=O)c3ccccc3CNC(=O)C(=O)NCC#Cc3nccs3)CC2)c1 [Example 132]
IC50 [1]: < 100 nM
EC50 [2]: < 1000 nM

C[C@@H](C#Cc1nccs1)NC(=O)C(=O)NCc1ccccc1C(=O)NC1(c2cc(F)cc(-c3cnn(C4CC4)c3)c2)CC1 [Example 185]
IC50 [1]: < 100 nM
EC50 [2]: < 1000 nM

N#Cc1cc(F)c(C#CCNC(=O)C(=O)NCc2ccccc2C(=O)NC2(c3ccc4ccccc4c3)CC2)c(F)c1 [Example 87]
IC50 [1]: < 100 nM
EC50 [2]: < 1000 nM

C#CCNC(=O)C(=O)NCc1ccccc1C(=O)NC1(c2cc(F)cc(Br)c2)CC1 [Example 228]
IC50 [1]: < 100 nM
EC50 [2]: < 1000 nM

O=C(NCC#CBr)C(=O)NCc1ccccc1C(=O)NC1(c2ccc3ccccc3c2)CC1 [Example 163]
IC50 [1]: < 100 nM
EC50 [2]: < 1000 nM

O=C(NC/C=C/C(=O)N1CCCCO1)C(=O)NCc1ccccc1C(=O)NC1(c2cccc3ccccc23)CC1 [Example 566]
IC50 [1]: 100 to 1000 nM
EC50 [2]: 1000 to 10000 nM

O=C(NCC#Cc1ccc(F)cn1)C(=O)NCc1ccccc1C(=O)NC1(c2cc(-c3cnn(C4CC4)c3)cc(C3CC3)c2)CC1 [Example 135]
IC50 [1]: < 100 nM
EC50 [2]: < 1000 nM

CS(=O)(=O)n1cc(-c2cc(C3(NC(=O)c4ccccc4CNC(=O)C(=O)NCC#N)CC3)c3ccccc3c2)cn1 [Example 356]
IC50 [1]: < 100 nM
EC50 [2]: 1000 to 10000 nM

C#CCNC(=O)C(=O)NCc1ccccc1C(=O)NC1(c2cc(-c3ccccc3)cc(C(F)(F)F)c2)CC1 [Example 469]
IC50 [1]: < 100 nM
EC50 [2]: 1000 to 10000 nM

Cc1n[nH]c(C)c1-c1cc(C(F)(F)F)cc(C2(NC(=O)c3ccccc3CNC(=O)C(=O)NCC#N)CC2)c1 [Example 476]
IC50 [1]: 100 to 1000 nM
EC50 [2]: 1000 to 10000 nM

N#CCNC(=O)C(=O)NCc1ccccc1C(=O)NC1(c2cc(-c3cnn(C(F)F)c3)cc3ccccc23)CC1 [Example 285]
IC50 [1]: < 100 nM
EC50 [2]: < 1000 nM

C#CCNC(=O)C(=O)NCc1ccccc1C(=O)NC1(c2cc(F)cc(-c3cnn(C4CC4)c3)c2)CC1 [Example 226]
IC50 [1]: < 100 nM
EC50 [2]: < 1000 nM

C[C@@H](C#Cc1c(F)cc(F)cc1C#N)NC(=O)C(=O)NCc1ccccc1C(=O)NC1(c2ccc3nn(C)cc3c2)CC1 [Example 105]
IC50 [1]: < 100 nM
EC50 [2]: < 1000 nM

COC(=O)/C=C/CNC(=O)C(=O)NCc1ccccc1C(=O)NC1(c2cccc3ccccc23)CC1 [Example 4]
IC50 [1]: < 100 nM
EC50 [2]: < 1000 nM

N#CCNC(=O)C(=O)NCc1ccccc1C(=O)NC1(c2cccc(Br)c2)CC1 [Example 545]
IC50 [1]: 100 to 1000 nM
EC50 [2]: > 10000 nM

C#CCNC(=O)C(=O)NCc1ccccc1C(=O)NC1(c2cc(F)cc(-c3cccs3)c2)CC1 [Example 224]
IC50 [1]: < 100 nM
EC50 [2]: < 1000 nM

COc1cccnc1C#CCNC(=O)C(=O)NCc1ccccc1C(=O)NC1(c2cc(F)cc(-c3cnn(C4CC4)c3)c2)CC1 [Example 261]
IC50 [1]: < 100 nM
EC50 [2]: < 1000 nM

C#CCNC(=O)C(=O)NCc1ccccc1C(=O)NC1(c2ccc3c(cnn3C)c2)CC1 [Example 344]
IC50 [1]: < 100 nM
EC50 [2]: < 1000 nM

O=C(NCC#Cc1ncccc1Cl)C(=O)NCc1ccccc1C(=O)NC1(c2cc(F)cc(-c3cnn(C4CC4)c3)c2)CC1 [Example 263]
IC50 [1]: < 100 nM
EC50 [2]: < 1000 nM

N#CCNC(=O)C(=O)NCc1ccccc1C(=O)NC1(c2cc(C#N)cc(-c3cccs3)c2)CC1 [Example 127]
IC50 [1]: < 100 nM
EC50 [2]: 1000 to 10000 nM

O=C(NCC#Cc1nccs1)C(=O)NCc1ccccc1C(=O)NC1(c2ccn3nccc3c2)CC1 [Example 399]
IC50 [1]: < 100 nM
EC50 [2]: < 1000 nM

N#CN1CC(CNC(=O)C(=O)NCc2ccccc2C(=O)NC2(c3cc(F)cc(-c4cnn(C5CC5)c4)c3)CC2)C1 [Example 431]
IC50 [1]: 100 to 1000 nM
EC50 [2]: 1000 to 10000 nM

Cn1cc2cc(C3(NC(=O)c4ccccc4CNC(=O)C(=O)NCC#Cc4ccccc4C#N)CC3)ccc2n1 [Example 104]
IC50 [1]: < 100 nM
EC50 [2]: < 1000 nM

COc1cc(C2(NC(=O)c3ccccc3CNC(=O)C(=O)N[C@@H](C)C#Cc3ncccn3)CC2)cc2cn(C3CC3)nc12 [Example 532]
IC50 [1]: < 100 nM
EC50 [2]: < 1000 nM
